pEC50, pIC50: −log10 of the molar value.
How the values were obtained:
[1] = Inhibition of pig heart native MDH reporter reaction after 20 to 40 mins by fluorescence based assay; set-up: species or system Sus scrofa
[2] = biological target: T1, E. coli GroEL/ES (Escherichia coli, UniProt P0A6F5); experiment: Inhibition of Escherichia coli GroEL/GroES-ATPase activity expressed in Escherichia coli DH5alpha/BL21 (DE3) assessed as inhibition of denatured MDH refolding preincubated for 10 mins followed by ATP addition measured after 20 to 40 mins by malachite green dye based fluorescence assay
T1 sequence (P0A6F5 whole entry, looked up): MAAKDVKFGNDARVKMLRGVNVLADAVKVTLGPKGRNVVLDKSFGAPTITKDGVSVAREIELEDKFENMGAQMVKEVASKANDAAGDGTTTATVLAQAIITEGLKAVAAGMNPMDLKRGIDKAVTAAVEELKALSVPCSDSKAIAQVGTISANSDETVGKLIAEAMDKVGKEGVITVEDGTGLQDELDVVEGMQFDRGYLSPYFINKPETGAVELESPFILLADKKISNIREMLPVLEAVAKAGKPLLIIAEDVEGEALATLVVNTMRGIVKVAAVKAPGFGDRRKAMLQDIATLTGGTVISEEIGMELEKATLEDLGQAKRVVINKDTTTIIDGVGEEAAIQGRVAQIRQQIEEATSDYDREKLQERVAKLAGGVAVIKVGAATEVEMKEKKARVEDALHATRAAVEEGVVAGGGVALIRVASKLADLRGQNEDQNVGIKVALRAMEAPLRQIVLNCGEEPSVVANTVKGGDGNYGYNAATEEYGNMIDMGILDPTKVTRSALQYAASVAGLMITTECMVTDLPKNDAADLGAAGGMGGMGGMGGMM

[3] = Cytotoxicity against HEK293 cells assessed as reduction in cell viability after 48 hrs by alamar blue assay; type: toxicity, cell-based; settings: human
[4] = biological target: T2, HSP60/HSP10 (Homo sapiens, UniProt P10809); experiment: Inhibition of human mitochondrial HSP60/HSP10 expressed in Escherichia coli DH5alpha/BL21 (DE3) assessed as inhibition of denatured MDH refolding preincubated for 10 mins followed by ATP addition measured after 40 to 60 mins by fluorescence based assay
T2 sequence (P10809 whole entry): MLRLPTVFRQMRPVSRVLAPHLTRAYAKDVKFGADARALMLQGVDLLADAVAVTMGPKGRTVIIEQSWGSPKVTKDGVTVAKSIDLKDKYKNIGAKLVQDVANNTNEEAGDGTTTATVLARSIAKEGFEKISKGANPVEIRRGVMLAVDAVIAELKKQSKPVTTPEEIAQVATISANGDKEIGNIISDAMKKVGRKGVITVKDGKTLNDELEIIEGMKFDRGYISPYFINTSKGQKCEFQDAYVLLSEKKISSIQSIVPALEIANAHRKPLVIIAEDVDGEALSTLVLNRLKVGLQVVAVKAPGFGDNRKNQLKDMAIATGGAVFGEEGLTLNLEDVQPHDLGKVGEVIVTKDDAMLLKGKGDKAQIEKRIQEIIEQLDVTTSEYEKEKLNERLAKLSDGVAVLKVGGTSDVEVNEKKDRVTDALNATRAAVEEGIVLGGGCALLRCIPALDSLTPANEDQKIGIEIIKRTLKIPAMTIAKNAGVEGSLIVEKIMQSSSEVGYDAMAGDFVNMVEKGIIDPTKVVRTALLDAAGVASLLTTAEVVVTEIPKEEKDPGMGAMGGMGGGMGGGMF
T2 sequence (P61604 whole entry, further chain): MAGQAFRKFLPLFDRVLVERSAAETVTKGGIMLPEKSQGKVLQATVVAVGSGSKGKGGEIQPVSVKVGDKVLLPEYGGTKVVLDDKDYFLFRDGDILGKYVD

[5] = biological target: T1, E. coli GroEL/ES; experiment: Inhibition of Escherichia coli GroEL/GroES expressed in Escherichia coli DH5alpha/BL21 (DE3) assessed as inhibition of denatured MDH refolding preincubated for 10 mins followed by ATP addition measured after 20 to 40 mins by fluorescence based assay
[6] = Cytotoxicity against human THLE3 cells assessed as reduction in cell viability after 48 hrs by alamar blue assay; type: toxicity, cell-based
[7] = biological target: T2, HSP60/HSP10; experiment: Inhibition of human mitochondrial HSP60/HSP10-ATPase activity expressed in Escherichia coli DH5alpha/BL21 (DE3) assessed as inhibition of denatured MDH refolding preincubated for 10 mins followed by ATP addition measured after 40 to 60 mins by malachite green dye based fluorescence assay
[8] = test system: Trypanosoma brucei brucei; experiment: Antitrypanosomal activity against Trypanosoma brucei brucei Lister 427 VSG 221 [TetR T7RNAP] transgenic bloodstream forms assessed as reduction in cell viability after 48 hrs by alamar blue assay; type: functional; settings: Lister 427 VSG 221, 48 h

Row | Structure (SMILES) | pIC50 [1] | pIC50 [2] | EC50 at 48 h [3] [µM] | pIC50 [4] | pIC50 [5] | EC50 at 48 h [6] [µM] | pIC50 [7] | pEC50 [8]
1 | Cc1cccc(S(=O)(=O)Nc2ccc(-c3nc4cc(NS(=O)(=O)c5cccc(C)c5)ccc4o3)cc2)c1 | < 4.20 | < 3.60 | 65 | < 4.00 | 4.46 | 18 | < 3.60 | 5.31
2 | CS(=O)(=O)Nc1ccc(-c2nc3cc(NS(C)(=O)=O)ccc3o2)cc1 | < 4.20 | < 3.60 | > 100 | < 4.00 | < 4.00 | > 100 | < 3.60 | < 4.38
3 | O=S(=O)(Nc1ccc(-c2nc3cc(NS(=O)(=O)c4cccc(F)c4)ccc3o2)cc1)c1cccc(F)c1 | < 4.20 | 5.29 | 24 | 4.17 | 5.28 | 20 | < 3.60 | 5.00
4 | O=S(=O)(Nc1ccc(-c2nc3cc(NS(=O)(=O)c4ccccc4C(F)(F)F)ccc3o2)cc1)c1ccccc1C(F)(F)F | < 4.20 | 4.68 | 66 | < 4.00 | 4.60 | 50 | < 3.60 | 4.55
5 | O=S(=O)(Nc1ccc(-c2nc3cc(NS(=O)(=O)c4ccccc4)ccc3o2)cc1)c1ccccc1 | < 4.20 | 5.34 | 15 | < 4.00 | 5.41 | 19 | < 3.60 | 5.19
6 | O=S(=O)(Nc1ccc(-c2nc3cc(NS(=O)(=O)c4cccc(Cl)c4)ccc3o2)cc1)c1cccc(Cl)c1 | < 4.20 | < 3.60 | 21 | < 4.00 | 4.74 | 17 | < 3.60 | 5.35
7 | O=S(=O)(Nc1ccc(-c2nc3cc(NS(=O)(=O)c4ccc(C(F)(F)F)cc4)ccc3o2)cc1)c1ccc(C(F)(F)F)cc1 | < 4.20 | < 3.60 | > 100 | 4.21 | 4.46 | 21 | < 3.60 | 5.39
8 | O=S(=O)(Nc1ccc(-c2nc3cc(NS(=O)(=O)c4ccccc4O)ccc3o2)cc1)c1ccccc1O |  | 4.44 | 18 | 4.89 | 5.12 | 19 | 4.48 | 5.30
9 | O=S(=O)(Nc1ccc(-c2nc3cc(NS(=O)(=O)c4cccc5nsnc45)ccc3o2)cc1)c1cccc2nsnc12 | < 4.20 | 3.90 | 52 | 4.01 | 4.66 | > 100 | 3.82 | < 4.38
10 | O=S(=O)(Nc1ccc(-c2nc3cc(NS(=O)(=O)c4ccc(F)cc4)ccc3o2)cc1)c1ccc(F)cc1 | < 4.20 | 5.37 | 21 | < 4.00 | 5.42 | 19 | < 3.60 | 5.37
11 | O=S(=O)(Cc1ccccc1)Nc1ccc(-c2nc3cc(NS(=O)(=O)Cc4ccccc4)ccc3o2)cc1 | < 4.20 | 3.68 | 19 | < 4.00 | 4.26 | 29 | < 3.60 | 4.89
12 | COc1cccc(S(=O)(=O)Nc2ccc(-c3nc4cc(NS(=O)(=O)c5cccc(OC)c5)ccc4o3)cc2)c1 | < 4.20 | < 3.60 | 28 | < 4.00 | 4.32 | 15 | < 3.60 | 5.29
13 | O=S(=O)(Nc1ccc(-c2nc3cc(NS(=O)(=O)c4ccccc4F)ccc3o2)cc1)c1ccccc1F | < 4.20 | < 3.60 | 31 | 4.11 | 4.66 | 55 | < 3.60 | 4.72
14 | O=c1ccc2cc(S(=O)(=O)Nc3ccc(-c4nc5cc(NS(=O)(=O)c6ccc7oc(=O)ccc7c6)ccc5o4)cc3)ccc2o1 | < 4.20 | 4.08 | > 100 | 4.15 | 4.74 | > 100 | 3.70 | < 4.38
15 | O=S(=O)(Nc1ccc(-c2nc3cc(NS(=O)(=O)c4cccc5ccccc45)ccc3o2)cc1)c1cccc2ccccc12 | < 4.20 | 4.27 | > 100 | < 4.00 | 4.64 | 69 | 3.84 | 5.68
16 | CCCS(=O)(=O)Nc1ccc(-c2nc3cc(NS(=O)(=O)CCC)ccc3o2)cc1 | < 4.20 | < 3.60 | > 100 | < 4.00 | < 4.00 | > 100 | < 3.60 | 4.74
17 | O=S(=O)(Nc1ccc(-c2nc3cc(NS(=O)(=O)c4cccc(Br)c4)ccc3o2)cc1)c1cccc(Br)c1 | < 4.20 | 4.35 | 25 | < 4.00 | 4.64 | 21 | < 3.60 | 5.10
18 | O=S(=O)(Nc1ccc(-c2nc3cc(NS(=O)(=O)c4cccc5nonc45)ccc3o2)cc1)c1cccc2nonc12 | < 4.20 | < 3.60 | 45 | 4.18 | 4.49 | 58 | 3.67 | < 4.38
19 | COc1ccc(S(=O)(=O)Nc2ccc(-c3nc4cc(NS(=O)(=O)c5ccc(OC)cc5)ccc4o3)cc2)cc1 | < 4.20 | 4.08 | 88 | < 4.00 | 4.44 | > 100 | < 3.60 | 5.48
20 | Cc1ccccc1S(=O)(=O)Nc1ccc(-c2nc3cc(NS(=O)(=O)c4ccccc4C)ccc3o2)cc1 | < 4.20 | 3.71 | 25 | < 4.00 | < 4.00 | 17 | < 3.60 | 5.74
21 | O=S(=O)(Nc1ccc(-c2nc3cc(NS(=O)(=O)c4ccc5ncsc5c4)ccc3o2)cc1)c1ccc2ncsc2c1 | < 4.20 | 6.26 | 95 | 4.31 | 6.09 | 30 | < 3.60 | 4.60
22 | O=S(=O)(Nc1ccc(-c2nc3cc(NS(=O)(=O)C(F)(F)F)ccc3o2)cc1)C(F)(F)F | < 4.20 | < 3.60 | > 100 | 4.01 | 4.40 | > 100 | < 3.60 | < 4.38
23 | O=S(=O)(Nc1ccc(-c2nc3cc(NS(=O)(=O)c4cccc(C(F)(F)F)c4)ccc3o2)cc1)c1cccc(C(F)(F)F)c1 | < 4.20 | 3.67 | 15 | < 4.00 | 4.82 | 19 | < 3.60 | 5.32
24 | O=S(=O)(Nc1ccc(-c2nc3cc(NS(=O)(=O)c4cccs4)ccc3o2)cc1)c1cccs1 | < 4.20 | 5.17 | 26 | 4.24 | 5.34 | 44 | < 3.60 | 4.77
25 | O=S(=O)(Nc1ccc(-c2nc3cc(NS(=O)(=O)c4ccc(Cl)cc4)ccc3o2)cc1)c1ccc(Cl)cc1 | < 4.20 | 4.46 | 13 | 4.02 | 4.64 | 18 | < 3.60 | 5.49
26 | COc1ccccc1S(=O)(=O)Nc1ccc(-c2nc3cc(NS(=O)(=O)c4ccccc4OC)ccc3o2)cc1 | < 4.20 | < 3.60 | 79 | < 4.00 | 4.16 | > 100 | < 3.60 | 5.57
27 | O=S(=O)(Nc1ccc(-c2nc3cc(NS(=O)(=O)c4ccc(Br)cc4)ccc3o2)cc1)c1ccc(Br)cc1 | < 4.20 | 4.72 | 22 | < 4.00 | 4.62 | 16 | < 3.60 | 5.62
28 | O=S(=O)(Nc1ccc(-c2nc3cc(NS(=O)(=O)c4ccc5nsnc5c4)ccc3o2)cc1)c1ccc2nsnc2c1 | < 4.20 | 5.77 | 76 | 4.21 | 5.43 | 45 | 3.90 | < 4.38
29 | O=S(=O)(Nc1ccc(-c2nc3cc(NS(=O)(=O)c4ccccc4Br)ccc3o2)cc1)c1ccccc1Br | < 4.20 | 3.84 | 28 | < 4.00 | 4.20 | 37 | < 3.60 | 4.55
30 | O=S(=O)(Nc1ccc(-c2nc3cc(NS(=O)(=O)c4ccccc4Cl)ccc3o2)cc1)c1ccccc1Cl | < 4.20 | 3.88 | 75 | < 4.00 | 4.34 | 24 | < 3.60 | 5.23

Reference: ChEMBL document CHEMBL3856280, “Targeting the HSP60/10 chaperonin systems of Trypanosoma brucei as a strategy for treating African sleeping sickness” (Bioorg Med Chem Lett, 2016)
